According to patent publication US20130210846A1, “USE OF NOVEL PAN-CDK INHIBITORS FOR TREATING TUMORS” (BAYER INTELLECTUAL PROPERTY GMBH, priority 2010, published 2013):

Assays:
CDK1/CycB = target: T1, CDK1/CycB (Homo sapiens, UniProt P06493); assay: CDK1/CycB kinase assay (Assay 1); format: biochemical; details: 0.5 μM ATP, histon IIIS, 10 min 22° C.; read-out: CDK1/CycB (Assay 1) Concentration for half-maximal inhibition of the enzyme activity, IC50
T1 construct: purchased ProQinase GmbH, Freiburg, Germany; host or cells: baculovirus-infected insect cells (Sf9)
Description: Recombinant CDK1 and CycB-GST fusion proteins, purified from baculovirus-infected insect cells (Sf9), were purchased from ProQinase GmbH, Freiburg, Germany. The histon HIS used as kinase substrate is commercially available from Sigma.
CDK1/CycB (200 ng/measuring point) was incubated for 10 min at 22° C. in the presence of various concentrations of test substances (0 μM, and within the range 0.01-100 μM) in assay buffer [50 mM Tris/HCl pH8.0, 10 mM MgCl2, 0.1 mM Na ortho-vanadate, 1.0 mM dithiothreitol, 0.5 μM adenosine triphosphate (ATP), 10 μg/measuring point histon IIIS, 0.2 μCi/measuring point ^33P-gamma ATP, 0.05% NP40, 1.25% dimethyl sulfoxide]. The reaction was stopped by adding EDTA solution (250 mM, pH 8.0, 15 μl/measuring point).
(§1) From each reaction mixture, 15 μl were applied to P30 filter strips (from Wallac), and unincorporated ^33P-ATP was removed by washing the filter strips three times, for 10 min each time, in 0.5% phosphoric acid. After drying the filter strips for 1 hour at 70° C., the filter strips were covered with scintillator strips (MeltiLex™ A, from Wallac) and stoved for 1 hour at 90° C. The amount of incorporated ^33P (substrate phosphorylation) was determined by scintillation measurement in a gamma-radiation measuring instrument (Wallac). The measured data were standardized to 0% inhibition (enzyme reaction without inhibitor) and 100% inhibition (all assay components except enzyme). The IC50 values were determined by means of a 4-parameter fit using the company's own software.

CDK2/CycE = target: T2, CDK2/CycE (Homo sapiens, UniProt P24941); assay: CDK2/CycE kinase assay (Assay 2); format: biochemical; details: 0.5 μM ATP, histon IIIS, 10 min 22° C.; read-out: CDK2/CycE (Assay 2) Concentration for half-maximal inhibition of the enzyme activity, IC50
T2 construct: purchased ProQinase GmbH, Freiburg, Germany; host or cells: baculovirus-infected insect cells (Sf9)
Description: Recombinant CDK2 and CycE-GST fusion proteins, purified from baculovirus-infected insect cells (Sf9), were purchased from ProQinase GmbH, Freiburg, Germany. Histon HIS, used as kinase substrate, was purchased from Sigma.
The reaction was stopped by adding EDTA solution (250 mM, pH 8.0, 15 μl/measuring point).
as §1, with “μl was” for “μl were”, “(Wallac). […]” for “(Wallac). The measured data were standardized to 0% inhibition (enzyme reaction without inhibitor) and 100% inhibition (all assay components except enzyme).”

[1] = target: T3, VEGF receptor tyrosine kinase-2 (VEGF-R2) (Homo sapiens, UniProt P35968); assay: VEGF receptor-2 kinase assay (Assay 3); format: biochemical; details: 8 μM ATP, poly-(Glu4Tyr), 10 min 22° C.; read-out: VEGF-R2 (Assay 3) Concentration for half-maximal inhibition of the enzyme activity, IC50
T3 construct: GST; made in house; host or cells: baculovirus-infected insect cells (Sf9)
Description: Recombinant VEGF receptor tyrosine kinase-2 was purified as GST fusion protein from baculovirus-infected insect cells (Sf9). Poly-(Glu4Tyr), used as kinase substrate, was purchased from Sigma.
VEGF receptor tyrosine kinase (90 ng/measuring point) was incubated for 10 min at 22° C. in the presence of various concentrations of test substances (0 μM, and within the range 0.001-30 μM) in 30 μl assay buffer [40 mM Tris/HCl pH5.5, 10 mM MgCl2, 1 mM MnCl2, 3 μM Na ortho-vanadate, 1.0 mM dithiothreitol, 8 μM adenosine triphosphate (ATP), 0.96 μg/measuring point poly-(Glu4Tyr), 0.2 μCi/measuring point ^33P-gamma ATP, 1.4% dimethyl sulfoxide]. The reaction was stopped by adding EDTA solution (250 mM, pH 8.0, 15 μl/measuring point).
as §1, with “μl was” for “μl were”

MCF7 = assay: Proliferation assay MCF7; format: cell-based, human; details: MCF7, estrogen receptor-positive mamma carcinoma, 4 days, crystal violet
Description: (§2) Cultivated human tumor cells (originally obtained from ATCC, HeLa-MaTu and HeLa-MaTu-ADR, originally obtained from Epo GmbH, Berlin, Germany) were plated at a density of 1000 to 5000 cells/measuring point, depending on the growth rate of the cell line, in a 96-well multititer plate in 200 μl of growth medium (DMEM/HAMS F12, 2 mM L-glutamine, 10% fetal calf serum). After 24 hours the cells of one plate (zero-point plate) were stained with crystal violet (see below), whereas the medium of the other plates was replaced with fresh culture medium (200 μl), to which the test substances had been added at various concentrations (0 μM, and in the range 0.01-30 μM; the final concentration of the solvent dimethyl sulfoxide was 0.5%). The cells were incubated for 4 days in the presence of the test substances. Cellular proliferation was determined by staining the cells with crystal violet: the cells were fixed by adding 20 μl/measuring point of an 11% glutaraldehyde solution for 15 min at room temperature. After washing the fixed cells with water three times, the plates were dried at room temperature. The cells were stained by adding 100 μl/measuring point of a 0.1% crystal violet solution (pH adjusted to pH3 by adding acetic acid). After washing the stained cells with water three times, the plates were dried at room temperature. The dye was dissolved by adding 100 μl/measuring point of a 10% acetic acid solution. The extinction was determined photometrically at a wavelength of 595 nm. The percentage change in cell growth was calculated by standardization of the measured values to the extinction values of the zero-point plate (=0%) and the extinction of the untreated (0 μM) cells (=100%). The measured data were standardized to 0% inhibition (cell proliferation without inhibitor) and 100% inhibition (zero-point plate). The IC50 values were determined by means of a 4-parameter fit using the company's own software.
(§3) The substances were examined in the following cell lines which, in an exemplary manner, represent the stated indications: […]

Caco-2 = assay: Proliferation assay Caco-2; format: cell-based, human; details: Caco-2, colon/rectum carcinoma, 4 days, crystal violet
Description: as §2, §3

NCI-H460 = assay: Proliferation assay NCI-H460; format: cell-based, human; details: NCI-H460, non-small-cell bronchial carcinoma, 4 days, crystal violet
Description: as §2, §3

HeLa-MaTu = assay: Proliferation assay HeLa-MaTu; format: cell-based, human; details: cervix carcinoma, 4 days, crystal violet
Description: as §2, §3

HeLa-MaTu-ADR = assay: Proliferation assay HeLa-MaTu-ADR; format: cell-based, human; details: cervix carcinoma, 4 days, crystal violet
Description: as §2, §3

HCT116 = assay: Proliferation assay HCT116; format: cell-based; details: Homo sapiens, HCT-116, 96 h; HCT116, colon/rectum carcinoma; 4 days, crystal violet
Description: as §2, §3

DU145 = assay: Proliferation assay DU145; format: cell-based, human; details: DU145, prostate carcinoma, 4 days, crystal violet
Description: as §2, §3

HeLa = assay: Proliferation assay HeLa; format: cell-based; details: Homo sapiens, 96 h, cervix carcinoma, 4 days, crystal violet
Description: as §2, §3

SW480 = assay: Proliferation assay SW480; format: cell-based; details: Homo sapiens, 96 h; SW480, colon/rectum carcinoma; 4 days, crystal violet
Description: as §2, §3

T3 sequence (P35968 20-1356, species assumed): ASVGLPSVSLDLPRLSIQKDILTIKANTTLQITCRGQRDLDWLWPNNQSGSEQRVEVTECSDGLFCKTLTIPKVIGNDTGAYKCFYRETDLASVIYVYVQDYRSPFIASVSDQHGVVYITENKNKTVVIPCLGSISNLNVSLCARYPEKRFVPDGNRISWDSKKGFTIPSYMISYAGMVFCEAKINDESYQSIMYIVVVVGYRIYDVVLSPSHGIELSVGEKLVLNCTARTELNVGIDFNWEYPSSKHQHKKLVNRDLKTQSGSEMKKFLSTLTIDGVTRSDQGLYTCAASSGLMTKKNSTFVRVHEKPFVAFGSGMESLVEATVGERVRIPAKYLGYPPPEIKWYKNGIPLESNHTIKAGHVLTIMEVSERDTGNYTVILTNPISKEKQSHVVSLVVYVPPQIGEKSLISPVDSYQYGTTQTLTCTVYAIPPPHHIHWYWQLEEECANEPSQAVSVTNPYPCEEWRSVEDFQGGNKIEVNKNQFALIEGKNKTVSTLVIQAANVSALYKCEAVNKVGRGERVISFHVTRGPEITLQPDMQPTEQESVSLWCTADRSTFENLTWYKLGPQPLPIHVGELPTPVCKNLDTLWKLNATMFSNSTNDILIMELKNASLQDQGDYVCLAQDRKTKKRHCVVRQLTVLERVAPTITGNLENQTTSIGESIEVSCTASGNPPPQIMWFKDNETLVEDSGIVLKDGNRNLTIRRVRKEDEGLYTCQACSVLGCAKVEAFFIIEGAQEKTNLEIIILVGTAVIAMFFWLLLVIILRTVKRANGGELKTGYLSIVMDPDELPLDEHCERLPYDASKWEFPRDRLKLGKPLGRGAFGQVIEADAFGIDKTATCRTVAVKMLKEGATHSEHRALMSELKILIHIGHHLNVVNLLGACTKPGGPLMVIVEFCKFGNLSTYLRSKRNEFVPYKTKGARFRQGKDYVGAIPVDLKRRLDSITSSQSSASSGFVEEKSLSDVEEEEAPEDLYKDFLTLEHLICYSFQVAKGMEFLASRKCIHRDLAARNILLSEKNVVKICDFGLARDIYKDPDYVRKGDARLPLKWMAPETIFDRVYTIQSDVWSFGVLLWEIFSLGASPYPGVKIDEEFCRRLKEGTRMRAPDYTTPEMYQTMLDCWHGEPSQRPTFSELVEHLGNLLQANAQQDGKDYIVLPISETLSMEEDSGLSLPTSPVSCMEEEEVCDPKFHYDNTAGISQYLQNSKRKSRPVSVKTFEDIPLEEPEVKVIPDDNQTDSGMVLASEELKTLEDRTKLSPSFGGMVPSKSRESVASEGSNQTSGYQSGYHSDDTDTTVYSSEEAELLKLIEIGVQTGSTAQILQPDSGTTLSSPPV
T1 sequence (P06493 whole entry): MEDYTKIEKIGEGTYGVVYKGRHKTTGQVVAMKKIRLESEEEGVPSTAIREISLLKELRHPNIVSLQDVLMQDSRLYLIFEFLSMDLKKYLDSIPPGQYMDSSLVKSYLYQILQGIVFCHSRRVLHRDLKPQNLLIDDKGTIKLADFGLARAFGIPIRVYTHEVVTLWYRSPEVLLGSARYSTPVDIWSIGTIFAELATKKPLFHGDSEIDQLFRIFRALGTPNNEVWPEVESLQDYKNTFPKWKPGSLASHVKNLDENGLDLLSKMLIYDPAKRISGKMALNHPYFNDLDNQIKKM
T1 sequence (P14635 whole entry partner): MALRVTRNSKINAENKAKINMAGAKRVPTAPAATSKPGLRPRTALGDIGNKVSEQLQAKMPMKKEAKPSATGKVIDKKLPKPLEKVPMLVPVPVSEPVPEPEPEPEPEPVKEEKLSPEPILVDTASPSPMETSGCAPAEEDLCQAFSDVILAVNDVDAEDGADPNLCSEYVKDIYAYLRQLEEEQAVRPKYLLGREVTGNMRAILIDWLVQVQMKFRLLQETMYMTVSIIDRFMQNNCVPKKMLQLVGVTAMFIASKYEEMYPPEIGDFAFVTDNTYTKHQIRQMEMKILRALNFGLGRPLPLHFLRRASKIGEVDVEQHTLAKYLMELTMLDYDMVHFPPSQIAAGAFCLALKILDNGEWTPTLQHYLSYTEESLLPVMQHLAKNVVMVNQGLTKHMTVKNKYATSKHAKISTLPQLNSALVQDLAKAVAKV

Row | SMILES | IC50 (CDK1/CycB) | IC50 (CDK2/CycE) | IC50 [1] | IC50 (MCF7; Homo sapiens, MCF7, 96 h) | IC50 (Caco-2; Homo sapiens, Caco-2, 96 h) | IC50 (NCI-H460; Homo sapiens, NCI-H460, 96 h) | IC50 (HeLa-MaTu; Homo sapiens, 96 h) | IC50 (HeLa-MaTu-ADR; Homo sapiens, 96 h) | IC50 (MCF7) | IC50 (Caco-2) | IC50 (HCT116) | IC50 (DU145; Homo sapiens, DU-145, 96 h) | IC50 (NCI-H460) | IC50 (HeLa) | IC50 (SW480) | IC50 (DU145) | IC50 (HeLa-MaTu) | IC50 (HeLa-MaTu-ADR)
1 | C[C@@H](O)[C@@H](C)Nc1nc(Nc2ccc(S(C)(=N)=O)cc2)ncc1C(F)(F)F (single isomer, unassigned) [Example 8-SI-1] | 11 nM | 6 nM | 116 nM | 44 nM | 32 nM | 30 nM | 14 nM | 30 nM |  |  |  |  |  |  |  |  |  | 
2 | CCS(=N)(=O)c1ccc(Nc2ncc(C(F)(F)F)c(N[C@H](C)[C@@H](C)O)n2)cc1 (mixture of isomers) [Example 6-SI-2, (RS)—S-Ethyl-S-(4-{[4-{[(1R,2R)-2-hydroxy-1-methylpropyl]amino}-5-(trifluoromethyl)-pyrimidin-2-yl]amino}phenyl)sulfoximide] | 5 nM | 5 nM | 71 nM |  |  |  | 10 nM | 18 nM | 26 nM | 26 nM | 24 nM | 197 nM | 24 nM | 32 nM |  |  |  | 
3 | C[C@@H](Nc1nc(Nc2ccc(S(C)(=N)=O)cc2)ncc1C(F)(F)F)C(C)(C)O (single isomer, unassigned) [Example 9-SI-1] | 4 nM | 5 nM | 158 nM |  |  |  | 20 nM |  |  |  |  |  |  |  |  |  |  | 
4 | C[C@@H](O)[C@@H](C)Nc1nc(Nc2ccc(S(C)(=N)=O)cc2)ncc1C(F)(F)F (single isomer, unassigned) [Example 8-SI-2] | 3 nM | 4 nM | 81 nM |  |  |  |  |  |  |  | 17 nM |  |  | 25 nM | 31 nM |  |  | 
5 | CCS(=N)(=O)c1ccc(Nc2ncc(C(F)(F)F)c(N[C@H](C)C(C)(C)O)n2)cc1 (single isomer, unassigned) [Example 7-SI-2] | 7 nM | 5 nM | 136 nM |  |  |  |  |  |  |  | 17 nM |  |  | 33 nM | 45 nM |  |  | 
6 | C[C@@H](Oc1nc(Nc2ccc(S(C)(=N)=O)cc2)ncc1C(F)(F)F)C(C)(C)O (mixture of isomers) [Example 3, (RS)—S-(4-{[4-{[(R)-2-Hydroxy-1,2-dimethylpropyl]oxy}-5-(trifluoromethyl)pyrimidin-2-yl]-amino}phenyl)-S-methylsulfoximide] | 13 nM | 10 nM |  | 70 nM | 98 nM | 113 nM | 70 nM | 63 nM |  |  |  | 76 nM |  |  |  |  |  | 
7 | C[C@@H](O)[C@@H](C)Oc1nc(Nc2ccc(S(C)(=N)=O)cc2)ncc1C(F)(F)F (single isomer, unassigned) [Example 2-SI-1] | 5 nM | 6 nM | 84 nM |  |  |  | 12 nM |  |  |  |  |  |  |  |  |  |  | 
8 | C[C@@H](Nc1nc(Nc2ccc(S(=N)(=O)C3CC3)cc2)ncc1C(F)(F)F)C(C)(C)O (mixture of isomers) [Example 5-SI-2, (RS)—S-Cyclopropyl-S-(4-{[4-{[(R)-2-hydroxy-1,2-dimethylpropyl]amino}-5-(trifluoromethyl)-pyrimidin-2-yl]amino}phenyl)sulfoximide] | 9 nM | 8 nM | 82 nM |  |  |  |  |  | 34 nM | 42 nM | 28 nM |  | 33 nM | 50 nM |  | 26 nM | 10 nM | 24 nM
9 | C[C@@H](Nc1nc(Nc2ccc(S(=N)(=O)C3CC3)cc2)ncc1C(F)(F)F)C(C)(C)O (mixture of isomers) [Example 5-SI-1, (RS)—S-Cyclopropyl-S-(4-{[4-{[(R)-2-hydroxy-1,2-dimethylpropyl]amino}-5-(trifluoromethyl)-pyrimidin-2-yl]amino}phenyl)sulfoximide] | 25 nM | 8 nM | 70 nM | 33 nM |  |  |  |  |  | 112 nM |  |  | 70 nM |  |  | 107 nM | 22 nM | 63 nM
